Reference: patent publication US8592161B2, “Mutational profiles in HIV-1 protease correlated with phenotypic drug resistance” (Janssen R&D Ireland, priority 2002, dated 2013)
Where two headings read alike, the source gives them in different places.

How the values were obtained:
Assay type in all cases: cell-based
HIV-1/LAI = experiment: In vitro antiviral activity in acutely infected MT4 cells, wild type; conditions: read-out: median EC50
Experimental: (§1) Determination of the antiviral activity of a compound was done as described in Pauwels R. et al. (J Virol Methods 1988; 20(4):309-21). Various concentrations of the test compounds were brought into each well of a flat-bottom microtiter plate. Subsequently, HIV and MT4 cells were added to a final concentration of 200-250 50% cell culture infectious doses (CCID50)/well and 30,000 cells/well, respectively. After 5 days of incubation (37° C., 5% CO2), the cytopathic effect of the replicating virus was determined by the tetrazolium colorimetric MTT method. The dose protecting 50% of the cells from virus cytopathic effect was defined as the EC50, while the dose achieving 90% protection was defined as the EC90.
(§2) MT4-LTR-EGFP cells were infected at a multiplicity of infection (MOI) of 0.01 to 0.001 CCID50/cell in the presence of inhibitor. The starting concentration of the inhibitor was two to tee times the EC50, a suboptimal concentration. The cultures were sub-cultivated and scored microscopically on virus-induced fluorescence and cytopathicity every 3-4 days. The cultures were sub-cultivated in the presence of the same compound concentration until signs of virus replication were observed. The escaping virus was further cultivated in the presence of the same inhibitor concentration in order to enrich the population in resistant variants. If full virus breakthrough was observed the supernatant was collected and stored (new virus strain). Afterwards, the same virus was challenged with a higher compound concentration in order to select variants able to grow in the presence of as high as possible inhibitor concentrations. From the new viruses, a virus stock was grown in the absence of inhibitor.
(§3) In vitro drug selection experiments starting from wild-type HIV-1 under pressure of compound 1, compound 2, and Nelfinavir (NFV) have been performed. Tables 1, 2, 3, 4, and 5 show the genotypic and phenotypic characterization of the selected strains.

[1] = system: HIV-1/LAI strain selected with Compound 1 (100 nM, 188 days), protease R41T K70E; experiment: In vitro antiviral activity in acutely infected MT4 cells, selected strain; conditions: for EC50: Human immunodeficiency virus 1, Table 1, strain R41T K70E (Compound 1 100 nM, 188 days), read-out: median EC50; for median FC (fold change in EC50 as compared to wild type): Table 1, strain R41T K70E (Compound 1 100 nM, 188 days)
Experimental: as §1, §2, §3

[2] = system: HIV-1/LAI strain selected with Comp 1 (100 nM, 139 days), protease S37S/N R41R/K K70E; experiment: as above; conditions: for EC50: Human immunodeficiency virus 1, Table 2, strain S37S/N R41R/K K70E (Comp 1 100 nM, 139 days), read-out: median EC50; for median FC (fold change in EC50 as compared to wild type): Table 2, strain S37S/N R41R/K K70E (Comp 1 100 nM, 139 days)
Experimental: as §1, §2, §3

[3] = system: HIV-1 strain selected with Comp 1 (40 nM, 161 days), protease R41G V82I; experiment: as above; conditions: for EC50: Human immunodeficiency virus 1, Table 4, strain R41G V82I (Comp 1 40 nM, 161 days), read-out: median EC50; for median FC (fold change in EC50 as compared to wild type): Table 4, strain R41G V82I (Comp 1 40 nM, 161 days)
Experimental: as §1, §2, §3

[4] = system: HIV-1/LAI strain selected with Comp 1 (200 nM, 328 days), protease S37N R41S K70E; experiment: as above; conditions: for EC50: Human immunodeficiency virus 1, Table 2, strain S37N R41S K70E (Comp 1 200 nM, 328 days), read-out: median EC50; for median FC (fold change in EC50 as compared to wild type): Table 2, strain S37N R41S K70E (Comp 1 200 nM, 328 days)
Experimental: as §1, §2, §3

[5] = system: HIV-1/LAI strain selected with NFV (1000 nM, 35 days), protease D30N M46I; experiment: as above; conditions: for EC50: Human immunodeficiency virus 1, Table 5, strain D30N M46I (NFV 1000 nM, 35 days), read-out: median EC50; for median FC (fold change in EC50 as compared to wild type): Table 5, strain D30N M46I (NFV 1000 nM, 35 days)
Experimental: as §1, §2, §3

[6] = system: HIV-1 strain selected with Comp 1 (40 nM, 175 days), protease R41G V82I; experiment: as above; conditions: for EC50: Human immunodeficiency virus 1, Table 4, strain R41G V82I (Comp 1 40 nM, 175 days), read-out: median EC50; for median FC (fold change in EC50 as compared to wild type): Table 4, strain R41G V82I (Comp 1 40 nM, 175 days)
Experimental: as §1, §2, §3

[7] = system: HIV-1/LAI strain selected with NFV (9000 nM, 11l days), protease L10F D30N R41R/K K45I/K M46I V77I I84V/I I85V/I N88D; experiment: as above; conditions: for EC50: Human immunodeficiency virus 1, Table 5, strain L10F D30N R41R/K K45I/K M46I V77I I84V/I I85V/I N88D (NFV 9000 nM, 11l days), read-out: median EC50; for median FC (fold change in EC50 as compared to wild type): Table 5, strain L10F D30N R41R/K K45I/K M46I V77I I84V/I I85V/I N88D (NFV 9000 nM, 11l days)
Experimental: as §1, §2, §3

[8] = system: HIV-1/LAI strain selected with NFV (9000 nM, 140 days), protease L10F D30N R41R/K K45I/K M46I V77I I84V N88D; experiment: as above; conditions: for EC50: Human immunodeficiency virus 1, Table 5, strain L10F D30N R41R/K K45I/K M46I V77I I84V N88D (NFV 9000 nM, 140 days), read-out: median EC50; for median FC (fold change in EC50 as compared to wild type): Table 5, strain L10F D30N R41R/K K45I/K M46I V77I I84V N88D (NFV 9000 nM, 140 days)
Experimental: as §1, §2, §3

[9] = system: HIV-1/LAI strain selected with Comp 1 (100 nM, 195 days), protease S37N R41S K70E; experiment: as above; conditions: for EC50: Human immunodeficiency virus 1, Table 2, strain S37N R41S K70E (Comp 1 100 nM, 195 days), read-out: median EC50; for median FC (fold change in EC50 as compared to wild type): Table 2, strain S37N R41S K70E (Comp 1 100 nM, 195 days)
Experimental: as §1, §2, §3

[10] = system: HIV-1 strain selected with Comp 1 (20 nM, 94 days), protease R41G/R V82V/I; experiment: as above; conditions: for EC50: Human immunodeficiency virus 1, Table 4, strain R41G/R V82V/I (Comp 1 20 nM, 94 days), read-out: median EC50; for median FC (fold change in EC50 as compared to wild type): Table 4, strain R41G/R V82V/I (Comp 1 20 nM, 94 days)
Experimental: as §1, §2, §3

[11] = system: HIV-1/LAI strain selected with Comp 1 (30 nM, 70 days), protease K70E; experiment: as above; conditions: for EC50: Human immunodeficiency virus 1, Table 2, strain K70E (Comp 1 30 nM, 70 days), read-out: median EC50; for median FC (fold change in EC50 as compared to wild type): Table 2, strain K70E (Comp 1 30 nM, 70 days)
Experimental: as §1, §2, §3

[12] = system: HIV-1/LAI strain selected with Compound 1 (30 nM, 45 days), protease R41T; experiment: as above; conditions: for EC50: Human immunodeficiency virus 1, Table 1, strain R41T (Compound 1 30 nM, 45 days), read-out: median EC50; for median FC (fold change in EC50 as compared to wild type): Table 1, strain R41T (Compound 1 30 nM, 45 days)
Experimental: as §1, §2, §3

[13] = system: HIV-1/LAI strain selected with Compound 2 (100 nM), protease R41I; Table 3; experiment: as above; conditions: Human immunodeficiency virus 1, R41I strain selected with Compound 2 100 nM (head lists 116, 200, 264 days; assignment unclear), read-out: median EC50
Experimental: as §1, §2, §3

[14] = Human immunodeficiency virus 1, MT4, Table 1, wild-type HIV/LAI
[15] = Human immunodeficiency virus 1, MT4, Table 2, wild-type HIV-1/LAI
[16] = Human immunodeficiency virus 1, MT4, Table 3, wild-type HIV-1/LAI
[17] = Human immunodeficiency virus 1, MT4, Table 4, wild-type HIV-1/LAI
[18] = Human immunodeficiency virus 1, MT4, Table 5, wild-type HIV-1/LAI

| SMILES | EC50 (HIV-1/LAI; [14]) | EC50 (HIV-1/LAI; [15]) | EC50 (HIV-1/LAI; [16]) | EC50 (HIV-1/LAI; [17]) | EC50 (HIV-1/LAI; [18]) | EC50 [1] | median FC (fold change in EC50 as compared to wild type) [1] | EC50 [2] | median FC (fold change in EC50 as compared to wild type) [2] | EC50 [3] | median FC (fold change in EC50 as compared to wild type) [3] | EC50 [4] | median FC (fold change in EC50 as compared to wild type) [4] | EC50 [5] | median FC (fold change in EC50 as compared to wild type) [5] | EC50 [6] | median FC (fold change in EC50 as compared to wild type) [6] | EC50 [7] | median FC (fold change in EC50 as compared to wild type) [7] | EC50 [8] | other results |
| --- | --- | --- | --- | --- | --- | --- | --- | --- | --- | --- | --- | --- | --- | --- | --- | --- | --- | --- | --- | --- | --- |
| CC(C)(C)NC(=O)[C@@H]1C[C@@H]2CCCC[C@@H]2CN1C[C@@H](O)[C@H](Cc1ccccc1)NC(=O)[C@H](CC(N)=O)NC(=O)c1ccc2ccccc2n1 [Saquinavir] | 7.8 nM | 5.6 nM | 5.6 nM | 5.6 nM | 5.6 nM | 150 nM | 20 | 0.7 nM | 0.1 | 1 nM | 0 | 4 nM | 1 | 1.8 nM | 0 | 0.8 nM | 0 | 15 nM | 3 | 34 nM | median FC (fold change in EC50 as compared to wild type) [8]: 6; EC50 [9]: 0.9 nM; median FC (fold change in EC50 as compared to wild type) [9]: 0.2; EC50 [10]: 0.9 nM; median FC (fold change in EC50 as compared to wild type) [10]: 0; EC50 [11]: 6 nM; median FC (fold change in EC50 as compared to wild type) [11]: 1; EC50 [12]: 30 nM; median FC (fold change in EC50 as compared to wild type) [12]: 4 |
| CC(C)CN(C[C@@H](O)[C@H](Cc1ccccc1)NC(=O)O[C@H]1CCOC1)S(=O)(=O)c1ccc(N)cc1 [Amprenavir] | 36 nM | 20 nM | 20 nM | 20 nM | 20 nM | 39 nM | 1 | 24 nM | 1 | 6.6 nM | 0 | 15 nM | 1 | 28 nM | 1 | 9.4 nM | 0 | 95 nM | 5 | 190 nM | median FC (fold change in EC50 as compared to wild type) [8]: 10; EC50 [9]: 14 nM; median FC (fold change in EC50 as compared to wild type) [9]: 1; EC50 [13]: 14 nM; EC50 [10]: 7.3 nM; median FC (fold change in EC50 as compared to wild type) [10]: 0; EC50 [11]: 56 nM; median FC (fold change in EC50 as compared to wild type) [11]: 3; EC50 [12]: 38 nM; median FC (fold change in EC50 as compared to wild type) [12]: 1 |
| Cc1c(O)cccc1C(=O)N[C@@H](CSc1ccccc1)[C@H](O)CN1C[C@H]2CCCC[C@H]2C[C@H]1C(=O)NC(C)(C)C [Nelfinavir] | 30 nM | 38 nM | 38 nM | 38 nM | 38 nM | 37 nM | 1 | 9.7 nM | 0.3 | 11 nM | 0 | 1.9 nM | 0.1 | 330 nM | 9 | 16 nM | 0 | 7200 nM | 200 | 6800 nM | median FC (fold change in EC50 as compared to wild type) [8]: 200; EC50 [9]: 9.5 nM; median FC (fold change in EC50 as compared to wild type) [9]: 0.3; EC50 [13]: 16 nM; EC50 [10]: 5.7 nM; median FC (fold change in EC50 as compared to wild type) [10]: 0; EC50 [11]: 39 nM; median FC (fold change in EC50 as compared to wild type) [11]: 1; EC50 [12]: 32 nM; median FC (fold change in EC50 as compared to wild type) [12]: 1 |
| CC(C)(C)NC(=O)[C@@H]1CN(Cc2cccnc2)CCN1C[C@@H](O)C[C@@H](Cc1ccccc1)C(=O)N[C@H]1c2ccccc2C[C@H]1O [Indinavir] | 28 nM | 12 nM | 12 nM | 12 nM | 12 nM | 140 nM | 5 | 6.3 nM | 1 | 2.1 nM | 0 | 5.5 nM | 0.5 | 7.9 nM | 1 | 3.9 nM | 0 | 100 nM | 8 | 28 nM | median FC (fold change in EC50 as compared to wild type) [8]: 2; EC50 [9]: 9.1 nM; median FC (fold change in EC50 as compared to wild type) [9]: 1; EC50 [13]: 19 nM; EC50 [10]: 3.1 nM; median FC (fold change in EC50 as compared to wild type) [10]: 0; EC50 [11]: 18 nM; median FC (fold change in EC50 as compared to wild type) [11]: 2; EC50 [12]: 33 nM; median FC (fold change in EC50 as compared to wild type) [12]: 1 |
